Here are results for 13 compounds from patent US11912701B2, “Protein kinase inhibitors for promoting liver regeneration or reducing or preventing hepatocyte death” (HEPAREGENIX GMBH, priority 2018, dated 2024).

Holding throughout (type): biochemical
The target in experiment [1] is T1, BRaf (Homo sapiens, UniProt P15056).
T1 construct: purchased ProQinase GmbH, Freiburg, Germany (33PanQinase Assay Service)
The experiment can be described thus: 33PanQinase enzyme assay, BRaf. To be noted: ratio IC50(BRaf)/IC50(MKK4). The method, boiled down:
(§1)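 Off-target selectivity is the ratio IC50(off-target)/IC50(MKK4), with IC50 values from least-squares fitting and single-point data as % residual activity. Reactions of enzyme/substrate mix, ATP and compound ran 60 min at 30° C before H3PO4 stop; ^33P incorporation read on a scintillation counter.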

Experiment [2] addresses T2, MKK7 (Homo sapiens, UniProt O14733).
T2 sequence (O14733 1-419): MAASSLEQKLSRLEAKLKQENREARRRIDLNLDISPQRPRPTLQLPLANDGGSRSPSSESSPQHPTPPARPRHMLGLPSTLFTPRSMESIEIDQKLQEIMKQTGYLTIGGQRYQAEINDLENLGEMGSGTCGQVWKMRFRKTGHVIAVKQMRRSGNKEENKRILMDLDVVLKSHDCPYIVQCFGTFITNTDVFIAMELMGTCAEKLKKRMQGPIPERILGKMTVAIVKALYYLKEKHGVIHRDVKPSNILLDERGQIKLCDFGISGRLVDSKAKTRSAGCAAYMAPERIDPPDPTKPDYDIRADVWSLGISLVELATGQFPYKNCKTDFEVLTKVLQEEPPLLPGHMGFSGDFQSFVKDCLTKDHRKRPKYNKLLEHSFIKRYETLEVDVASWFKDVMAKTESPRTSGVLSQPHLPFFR
Put plainly: 33PanQinase enzyme assay, MKK7. Particulars: ratio IC50(MKK7)/IC50(MKK4). Details: purchased ProQinase GmbH, Freiburg, Germany (33PanQinase Assay Service). The method, boiled down: as §1

Experiment [3] deals with T3, MKK4 (Homo sapiens, UniProt P45985).
T3 construct: purchased ProQinase GmbH, Freiburg, Germany (33PanQinase Assay Service)
T3 sequence (P45985 1-399): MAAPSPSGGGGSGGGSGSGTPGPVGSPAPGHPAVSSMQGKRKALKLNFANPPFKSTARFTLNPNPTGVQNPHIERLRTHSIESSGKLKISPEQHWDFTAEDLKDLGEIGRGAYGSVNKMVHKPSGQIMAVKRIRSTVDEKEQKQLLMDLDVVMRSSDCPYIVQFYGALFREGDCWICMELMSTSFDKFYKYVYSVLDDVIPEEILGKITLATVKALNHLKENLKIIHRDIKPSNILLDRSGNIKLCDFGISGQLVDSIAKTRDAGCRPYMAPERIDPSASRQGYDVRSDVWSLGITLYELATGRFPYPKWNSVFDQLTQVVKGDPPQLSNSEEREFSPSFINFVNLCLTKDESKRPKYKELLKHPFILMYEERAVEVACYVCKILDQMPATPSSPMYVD
Put plainly: 33PanQinase enzyme assay, MKK4. To be noted: assay 'IC50'; for IC50: read-out: Potency MKK4 (IC50). A digest of the protocol:
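Inhibition measured as 33Pi transfer to substrate after a 60-min, 30 °C reaction, acid-stopped and scintillation-counted.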

The target in experiment [4] is JNK1 (Homo sapiens, UniProt P45983). The experiment can be described thus: 33PanQinase enzyme assay, JNK1. To be noted: ratio IC50(JNK1)/IC50(MKK4). Details: purchased ProQinase GmbH, Freiburg, Germany (33PanQinase Assay Service). The method, boiled down:
as §1

Some results are limits rather than exact numbers.

JNK1, sequence (P45983 whole entry): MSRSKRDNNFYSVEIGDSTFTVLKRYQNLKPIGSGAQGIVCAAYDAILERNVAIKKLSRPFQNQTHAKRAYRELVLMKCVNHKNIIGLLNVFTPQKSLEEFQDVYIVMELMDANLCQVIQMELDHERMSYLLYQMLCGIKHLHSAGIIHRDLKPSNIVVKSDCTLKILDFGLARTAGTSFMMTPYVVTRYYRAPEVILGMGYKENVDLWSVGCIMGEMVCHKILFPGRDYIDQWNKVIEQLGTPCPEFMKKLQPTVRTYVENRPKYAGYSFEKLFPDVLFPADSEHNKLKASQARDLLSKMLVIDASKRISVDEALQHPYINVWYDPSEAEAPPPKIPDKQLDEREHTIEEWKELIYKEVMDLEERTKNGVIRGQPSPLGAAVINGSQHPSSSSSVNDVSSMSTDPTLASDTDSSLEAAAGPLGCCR
T1 sequence (P15056 whole entry, species assumed): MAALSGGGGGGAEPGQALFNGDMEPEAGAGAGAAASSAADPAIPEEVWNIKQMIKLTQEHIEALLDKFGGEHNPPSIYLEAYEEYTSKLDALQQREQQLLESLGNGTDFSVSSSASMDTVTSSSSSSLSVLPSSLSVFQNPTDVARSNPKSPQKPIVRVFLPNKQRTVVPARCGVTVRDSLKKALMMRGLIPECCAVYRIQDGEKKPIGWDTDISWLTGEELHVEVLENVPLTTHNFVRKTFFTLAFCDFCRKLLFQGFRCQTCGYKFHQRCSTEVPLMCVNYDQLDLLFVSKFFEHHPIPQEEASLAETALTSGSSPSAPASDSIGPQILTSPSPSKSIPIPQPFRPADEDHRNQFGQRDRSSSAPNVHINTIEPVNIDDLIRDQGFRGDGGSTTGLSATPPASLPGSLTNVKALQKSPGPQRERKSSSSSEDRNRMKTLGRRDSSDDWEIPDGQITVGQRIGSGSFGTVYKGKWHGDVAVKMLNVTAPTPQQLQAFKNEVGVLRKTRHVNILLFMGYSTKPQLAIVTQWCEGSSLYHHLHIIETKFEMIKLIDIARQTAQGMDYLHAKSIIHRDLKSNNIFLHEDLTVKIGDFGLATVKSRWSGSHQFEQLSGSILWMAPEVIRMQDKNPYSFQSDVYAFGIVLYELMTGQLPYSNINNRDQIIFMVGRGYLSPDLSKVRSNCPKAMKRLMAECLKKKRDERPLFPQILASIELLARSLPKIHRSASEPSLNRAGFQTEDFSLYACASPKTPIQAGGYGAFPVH

Usually IC50 stands for the concentration that inhibits the measured activity by half. Take `CCCS(=O)(=O)Nc1ccc(F)c(C(=O)c2c[nH]c3ncc(-c4ccc(NC(C)=O)cc4)cc23)c1F` [Example 116, N-(4-(3-(2,6-difluoro-3-(propylsulfonamido)benzoyl)-1H-pyrrolo[2,3-b]pyridin-5-yl)phenyl)acetamide]: the “Selectivity Braf, IC50(off-target)/IC50(MKK4)” value (“Selectivity Braf” below) in experiment [1] is listed as “◯ (3 ≥ IC50(off-target)/IC50(MKK4))”. Moreover, the “Selectivity IVIKK7, IC50(off-target)/IC50(MKK4)” value (from here on “Selectivity IVIKK7”) in experiment [2] is recorded as “+++ (IC50(off-target)/IC50(MKK4) > 100)”. Moreover, the IC50 in experiment [3] fell in the range of 100 to 1000 nM. Moreover, in experiment [4], the “Selectivity JNK1, IC50(off-target)/IC50(MKK4)” value (“Selectivity JNK1” for short) was “◯ (3 ≥ IC50(off-target)/IC50(MKK4))”.

As for `CCCS(=O)(=O)Nc1c(F)ccc(C(=O)c2c[nH]c3ncc(-c4c(C)cc(C)nc4C)cc23)c1F` [Example 168, N-(2,6-difluoro-3-(5-(2,4,6-trimethylpyridin-3-yl)-1H-pyrrolo[2,3-b]pyridine-3-carbonyl)phenyl)propane-1-sulfonamide], the “Selectivity Braf” value in experiment [1] is recorded as “+++ (IC50(off-target)/IC50(MKK4) > 100)”. Also, in experiment [2], the “Selectivity IVIKK7” value is “+++ (IC50(off-target)/IC50(MKK4) > 100)”. The IC50 in experiment [3] fell in the range of 100 to 1000 nM. For the same compound, in experiment [4], the “Selectivity JNK1” value is on record as “++ (100 ≥ IC50(off-target)/IC50(MKK4) > 10)”.

On to `CCCS(=O)(=O)Nc1c(F)ccc(C(=O)c2c[nH]c3ncc(-c4cnc(N5CCN(C)CC5)nc4)cc23)c1F` [Example 194, N-(2,6-difluoro-3-(5-(2-(4-methylpiperazin-1-yl)pyrimidin-5-yl)-1H-pyrrolo[2,3-b]pyridine-3-carbonyl)phenyl)propane-1-sulfonamide], for which the “Selectivity Braf” value in experiment [1] is reported as “++ (100 ≥ IC50(off-target)/IC50(MKK4) > 10)”. In addition, the “Selectivity IVIKK7” value in experiment [2] is “+++ (IC50(off-target)/IC50(MKK4) > 100)”. Also, the IC50 in experiment [3] was in the range of 100 to 1000 nM. Besides, the “Selectivity JNK1” value in experiment [4] was “++ (100 ≥ IC50(off-target)/IC50(MKK4) > 10)”.

On to `CCCS(=O)(=O)Nc1ccc(F)c(C(=O)c2c[nH]c3ncc(-c4ccc([S+](C)[O-])cc4)cc23)c1F` (stereo not shown) [Example 75, N-(2,4-difluoro-3-(5-(4-(methylsulfinyl)phenyl)-1H-pyrrolo[2,3-b]pyridine-3-carbonyl)phenyl)propane-1-sulfonamide], for which the “Selectivity Braf” value in experiment [1] was “◯ (3 ≥ IC50(off-target)/IC50(MKK4))”. Besides, the “Selectivity IVIKK7” value in experiment [2] was “+++ (IC50(off-target)/IC50(MKK4) > 100)”. For the same compound, the IC50 in experiment [3] fell in the range of 100 to 1000 nM. In experiment [4], the “Selectivity JNK1” value is on record as “+ (10 ≥ IC50(off-target)/IC50(MKK4) > 3)”.

As to `CCCS(=O)(=O)Nc1c(F)ccc(C(=O)c2c[nH]c3ncc(-c4cnc(N5CCCC5)nc4)cc23)c1F` [Example 191, N-(2,6-difluoro-3-(5-(2-(pyrrolidin-1-yl)pyrimidin-5-yl)-1H-pyrrolo[2,3-b]pyridine-3-carbonyl)phenyl)propane-1-sulfonamide], the “Selectivity Braf” value in experiment [1] is “+++ (IC50(off-target)/IC50(MKK4) > 100)”. In addition, the “Selectivity IVIKK7” value in experiment [2] is recorded as “+++ (IC50(off-target)/IC50(MKK4) > 100)”. In experiment [3], the IC50 lay in the range of 100 to 1000 nM. Moreover, in experiment [4], the “Selectivity JNK1” value is listed as “+++ (IC50(off-target)/IC50(MKK4) > 100)”.

Take `CCCS(=O)(=O)Nc1ccc(F)c(C(=O)c2c[nH]c3ncc(-c4ccc(P(C)(C)=O)cc4)cc23)c1F` [Example 93, N-(3-(5-(4-(dimethylphosphoryl)phenyl)-1H-pyrrolo[2,3-b]pyridine-3-carbonyl)-2,4-difluorophenyl)propane-1-sulfonamide]: the “Selectivity Braf” value in experiment [1] was “◯ (3 ≥ IC50(off-target)/IC50(MKK4))”. For the same compound, the “Selectivity IVIKK7” value in experiment [2] is reported as “+++ (IC50(off-target)/IC50(MKK4) > 100)”. Besides, the IC50 in experiment [3] was in the range of 100 to 1000 nM. For the same compound, the “Selectivity JNK1” value in experiment [4] was “++ (100 ≥ IC50(off-target)/IC50(MKK4) > 10)”.

On to `CCCS(=O)(=O)Nc1c(F)ccc(C(=O)c2c[nH]c3ncc(-c4ccc(S(C)(=N)=O)cc4)cc23)c1F` (stereo not shown) [Example 151, N-(2,6-difluoro-3-(5-(4-(S-methylsulfonimidoyl)phenyl)-1H-pyrrolo[2,3-b]pyridine-3-carbonyl)phenyl)propane-1-sulfonamide], for which the “Selectivity Braf” value in experiment [1] is listed as “++ (100 ≥ IC50(off-target)/IC50(MKK4) > 10)”. Moreover, the “Selectivity IVIKK7” value in experiment [2] is reported as “+++ (IC50(off-target)/IC50(MKK4) > 100)”. In experiment [3], the IC50 lay in the range of 100 to 1000 nM. Moreover, the “Selectivity JNK1” value in experiment [4] was “++ (100 ≥ IC50(off-target)/IC50(MKK4) > 10)”.

Consider `CCCS(=O)(=O)Nc1ccc(F)c(C(=O)c2c[nH]c3ncc(-c4ccc(SC(F)(F)F)cc4)cc23)c1F` [Example 78, N-(2,4-difluoro-3-(5-(4-((trifluoromethyl)thio)phenyl)-1H-pyrrolo[2,3-b]pyridine-3-carbonyl)phenyl)propane-1-sulfonamide], for which, in experiment [1], the “Selectivity Braf” value is “◯ (3 ≥ IC50(off-target)/IC50(MKK4))”. In experiment [2], the “Selectivity IVIKK7” value is “+++ (IC50(off-target)/IC50(MKK4) > 100)”. In addition, the IC50 in experiment [3] was in the range of 100 to 1000 nM. The “Selectivity JNK1” value in experiment [4] is listed as “+ (10 ≥ IC50(off-target)/IC50(MKK4) > 3)”.

For `Cc1ncc(-c2cnc3[nH]cc(C(=O)c4ccc(F)c(NS(=O)(=O)CCC(F)(F)F)c4F)c3c2)cn1` [Example 147, N-(2,6-difluoro-3-(5-(2-methylpyrimidin-5-yl)-1H-pyrrolo[2,3-b]pyridine-3-carbonyl)phenyl)-3,3,3-trifluoropropane-1-sulfonamide], in experiment [1], the “Selectivity Braf” value is given as “++ (100 ≥ IC50(off-target)/IC50(MKK4) > 10)”. Further, the “Selectivity IVIKK7” value in experiment [2] is “+++ (IC50(off-target)/IC50(MKK4) > 100)”. Besides, the IC50 in experiment [3] was less than 100 nM. In experiment [4], the “Selectivity JNK1” value was “+++ (IC50(off-target)/IC50(MKK4) > 100)”.

Take `CCCS(=O)(=O)Nc1ccc(F)c(C(=O)c2c[nH]c3ncc(N4CCC(=O)CC4)cc23)c1F` [Example 135, N-(2,4-difluoro-3-(5-(4-oxopiperidin-1-yl)-1H-pyrrolo[2,3-b]pyridine-3-carbonyl)phenyl)propane-1-sulfonamide]: in experiment [1], the “Selectivity Braf” value was “◯ (3 ≥ IC50(off-target)/IC50(MKK4))”. In experiment [2], the “Selectivity IVIKK7” value is on record as “++ (100 ≥ IC50(off-target)/IC50(MKK4) > 10)”. Also, in experiment [3], the IC50 is 1000 to 10000 nM. Moreover, the “Selectivity JNK1” value in experiment [4] is listed as “◯ (3 ≥ IC50(off-target)/IC50(MKK4))”.

`CCCS(=O)(=O)Nc1ccc(F)c(C(=O)c2c[nH]c3ncc(N4CC(O)C4)cc23)c1F` [Example 134, N-(2,4-difluoro-3-(5-(3-hydroxyazetidin-1-yl)-1H-pyrrolo[2,3-b]pyridine-3-carbonyl)phenyl)propane-1-sulfonamide]: the “Selectivity Braf” value in experiment [1] is recorded as “◯ (3 ≥ IC50(off-target)/IC50(MKK4))”. In addition, the “Selectivity IVIKK7” value in experiment [2] was “++ (100 ≥ IC50(off-target)/IC50(MKK4) > 10)”. For the same compound, the IC50 in experiment [3] lay within 1000 to 10000 nM. In addition, in experiment [4], the “Selectivity JNK1” value is “◯ (3 ≥ IC50(off-target)/IC50(MKK4))”.

For the compound `CCCS(=O)(=O)Nc1c(F)ccc(C(=O)c2c[nH]c3ncc(-c4ccc(S(F)(F)(F)(F)F)cc4)cc23)c1F` [Example 155, N-(2,6-difluoro-3-(5-(4-(pentafluoro-l6-sulfaneyl)phenyl)-1H-pyrrolo[2,3-b]pyridine-3-carbonyl)phenyl)propane-1-sulfonamide], the “Selectivity Braf” value in experiment [1] is given as “+++ (IC50(off-target)/IC50(MKK4) > 100)”. Further, the “Selectivity IVIKK7” value in experiment [2] is reported as “+++ (IC50(off-target)/IC50(MKK4) > 100)”. The “Potency MKK4 (IC50)” value in experiment [3] was “++·+”. Also, the “Selectivity JNK1” value in experiment [4] was “++ (100 ≥ IC50(off-target)/IC50(MKK4) > 10)”.

On to `CCCCS(=O)(=O)Nc1c(F)ccc(C(=O)c2c[nH]c3ncc(-c4ccc(OC)cc4Cl)cc23)c1F` [Example 226, N-(3-(5-(2-chloro-4-methoxyphenyl)-1H-pyrrolo[2,3-b]pyridine-3-carbonyl)-2,6-difluorophenyl)butane-1-sulfonamide], for which the “Selectivity Braf” value in experiment [1] is “+++ (IC50(off-target)/IC50(MKK4) > 100)”. Also, the “Selectivity IVIKK7” value in experiment [2] was “+++ (IC50(off-target)/IC50(MKK4) > 100)”. Besides, in experiment [3], the IC50 was less than 100 nM. The “Selectivity JNK1” value in experiment [4] is “++ (100 ≥ IC50(off-target)/IC50(MKK4) > 10)”.
